Data: patent publication US20250263370A1 (Tay Therapeutics Limited, priority 2022, published 2025)
“And” between values parts separate entries of the source, which are not always exact repeats. Equal entries are not always repeated. Where two headings read alike, the source gives them in different places.

Experiments:
CXCL10 = CXCL10 levels by ELISA in IFN-γ stimulated human peripheral blood mononuclear cells; type: cell-based; settings: human PBMC
Method: The impact of Examples 23, 80, and 101 on IL-17A, IL-22, and CXCL10 levels was analyzed in cryopreserved human peripheral blood mononuclear cells (PBMC) by ELISA. […] For IL-17A and IL-22 assays, Examples 23, 80, and 101 were serially diluted from 10 mM in DMSO and further diluted in assay media to 100× the required final concentration, of which, 2 μL was added per well to a round-bottom 96-well tissue culture plate where the final DMSO concentration per well was 0.1%. CD2, CD3, and CD28 antibody-coated beads from the T-cell activation/expansion kit (Miltenyi Biotec) were added to the PBMC at a bead-to-cell ratio of 1:2.
(§1) The mixture of PBMCs and beads were seeded into the wells of the round-bottom 96-well plate at a concentration of 2×10^5 cells/well in a total volume of 200 μL. The cells were cultured for 72 hours at 37° C. and 5% CO2 and then supernatants were collected and IL-17A and IL-22 levels were measured by ELISA. For the CXCL10 assay, Examples 23, 80, and 101 were serially diluted from 10 mM in DMSO and further diluted in assay media to 100× the required final concentration, of which 2 μL was added per well to a 96-well tissue culture plate. The final compound concentration ranged from 30,000 nM to 0.005 nM and the final DMSO concentration per well was 0.3%. PBMCs were seeded at approximately 2×10^5 cells/well in the wells of the 96-well tissue culture plate in a total volume of 190 μL. The plate was incubated for 1 hour at 37° C. and 5% CO2. The cells were then stimulated with IFN-γ (15 ng/mL final concentration) in a volume of 10 μL. The cells were then cultured for 24 hours at 37° C. and 5% CO2. The supernatant was collected and CXCL10 levels were measured by ELISA.

IL-22 = IL-22 levels by ELISA in stimulated human peripheral blood mononuclear cells; type: cell-based; settings: for IC50: Homo sapiens, PBMC
Method: CD2, CD3, and CD28 antibody-coated beads from the T-cell activation/expansion kit (Miltenyi Biotec) were added to the PBMC at a bead-to-cell ratio of 1:2.
as §1, with “For the CXCL10 assay, Examples 23, 80, and 101 were serially diluted from 10 mM in DMSO and further diluted in assay media to 100× the required final concentration, of which 2 μL was added per well to a 96-well tissue culture plate.” left out, “The cells were then stimulated with IFN-γ (15 ng/mL final concentration) in a volume of 10 μL.” left out

[1] = Pharmacokinetics and plasma concentration of Example 101 in Lewis rats after oral administration (CIA study); type: in vivo, Lewis rat
[2] = Lewis rats, oral, 10 mg/kg, day 20, mean
[3] = Lewis, rat, plasma, oral, 10 mg/kg, oral, day 0, 10 mg/kg, per test subject, read-out: Plasma concentration
[4] = Lewis, rat, plasma, oral, 10 mg/kg, oral, day 20, 10 mg/kg, per test subject, read-out: Plasma concentration
[5] = Lewis, rat, plasma, oral, 10 mg/kg, plasma, oral, day 0, 10 mg/kg, read-out: Mean Concentration
[6] = Lewis, rat, plasma, oral, 10 mg/kg, plasma, oral, day 20, 10 mg/kg, read-out: Mean Concentration

With `CNC(=O)c1[nH]c(C(=O)NC2CCC2)cc1O[C@@H](C)c1ccccc1` (stereo in doubt) [Example 101, N^5-cyclobutyl-N^2-methyl-3-(1-phenylethoxy)-1H-pyrrole-2,5-dicarboxamide] the “selectivity to induction of CXCL10 relative to IL-17A and IL-22” value (CXCL10) was “showed selectivity to induction of CXCL10 relative to IL-17A and IL-22”, the “IC50 for CXCL-10 relative to GSK620” value (CXCL10; IFN-γ, 24 hours) was “substantially lower IC50” and the IC50 (CXCL10; Test Subject 1, read-out: CXCL10 IC50) was greater than 30000 nM. The IC50 (CXCL10; Test Subject 2, read-out: CXCL10 IC50) was greater than 30000 nM, the IC50 (CXCL10; Test Subject 3, read-out: CXCL10 IC50) was greater than 30000 nM and the IC50 (CXCL10; mean of test subjects, read-out: CXCL10 IC50 Mean) was greater than 30000 nM. The IC50 (IL-22; Test Subject 1, read-out: IL-22 IC50) was 14.8 nM, the IC50 (IL-22; Test Subject 2, read-out: IL-22 IC50) was 26.9 nM and the IC50 (IL-22; Test Subject 3, read-out: IL-22 IC50) was 21.1 nM. The IC50 (IL-22; mean of test subjects, read-out: IL-22 IC50 Mean) was 20.9 nM, the “IC50 for IL-22 relative to GSK620” value (IL-22; human PBMC, 72 hours) was “substantially lower IC50” and the “Biomarker selectivity (IL-22 vs. CXCL10)” value (IL-22; human PBMC, from mean IC50) was greater than 1433 Fold. The “Plasma concentration” value ([1]; Day 21, Group 5 (CIA), 3 mg/kg, per animal) was 37.5 ng/mL and 59.4 ng/mL and 64.9 ng/mL and 49.5 ng/mL and 65.2 ng/mL and 71.9 ng/mL and 69.6 ng/mL, the “Plasma concentration” value ([1]; Day 21, Group 6 (CIA), 10 mg/kg, per animal) was 270 ng/mL and 134 ng/mL and 209 ng/mL and 281 ng/mL and 251 ng/mL and 313 ng/mL and 175 ng/mL and 28.4 ng/mL and the “Plasma concentration” value ([1]; Day 21, Group 7 (CIA), 30 mg/kg, per animal) was 1620 ng/mL and 1260 ng/mL and 1430 ng/mL and 1220 ng/mL and 1350 ng/mL and 2000 ng/mL and 1440 ng/mL. For the same compound, the “day 20 plasma concentration versus dose” value ([1]; Lewis rats, oral administration) was “appeared to increase in a dose-dependent manner”, the AUClast/D [1, 2] was 528 (ng·h/mL)/(mg/kg) and the “AUC—% Extrap—obs” value [1, 2] was 1.11%. For the same compound, the “time at which plasma levels peaked after the second daily dose” value ([1]; Lewis rats, oral, second daily dose administered at 8 h) was 10 h, the concentration at 21 day ([1]; Lewis, rat, plasma, oral, 3 mg/kg, Day 21, Group 5 (CIA), 3 mg/kg, per animal, read-out: Plasma Concentration) was 54.9 ng/mL and the concentration at 21 day ([1]; Lewis, rat, plasma, oral, 3 mg/kg, Day 21, Group 5 (CIA), 3 mg/kg, read-out: Mean Plasma Concentration) was 59.1 ng/mL. The concentration at 21 day ([1]; Lewis, rat, plasma, oral, 10 mg/kg, Day 21, Group 6 (CIA), 10 mg/kg, read-out: Mean Plasma Concentration) was 208 ng/mL, the concentration at 0.5 h [1, 3] was 738 ng/mL and the concentration at 1 h [1, 3] was 1090 ng/mL. For the same compound, the concentration at 2 h [1, 3] was 1110 ng/mL, the concentration at 4 h [1, 3] was 1170 ng/mL and the concentration at 8 h [1, 3] was 190 ng/mL. For the same compound, the concentration at 10 h [1, 3] was 1880 ng/mL, the concentration at 12 h [1, 3] was 772 ng/mL and the concentration at 14 h [1, 3] was 324 ng/mL. The concentration at 0.25 h [1, 4] was 1260 ng/mL, the concentration at 0.5 h [1, 4] was 1660 ng/mL and the concentration at 1 h [1, 4] was 1600 ng/mL. The concentration at 2 h [1, 4] was 841 ng/mL, the concentration at 4 h [1, 4] was 452 ng/mL and the concentration at 10 h [1, 4] was 1170 ng/mL. The concentration at 12 h [1, 4] was 258 ng/mL, the concentration at 0.25 h [1, 5] was 502 ng/mL and the concentration at 0.5 h [1, 5] was 706 ng/mL. It also gave a concentration at 1 h [1, 5] of 1270 ng/mL, a concentration at 2 h [1, 5] of 1240 ng/mL and a concentration at 4 h [1, 5] of 997 ng/mL. For the same compound, the concentration at 8 h [1, 5] was 148 ng/mL, the concentration at 10 h [1, 5] was 1930 ng/mL and the concentration at 12 h [1, 5] was 799 ng/mL. The concentration at 14 h [1, 5] was 439 ng/mL, the concentration at 24 h ([1]; Lewis, rat, plasma, oral, 10 mg/kg, plasma, oral, day 0, 10 mg/kg) was 57 ng/mL and the concentration at 0.25 h [1, 6] was 1410 ng/mL. For the same compound, the concentration at 0.5 h [1, 6] was 1650 ng/mL, the concentration at 1 h [1, 6] was 1640 ng/mL and the concentration at 2 h [1, 6] was 1140 ng/mL. For the same compound, the concentration at 4 h [1, 6] was 494 ng/mL, the concentration at 8 h [1, 6] was 169 ng/mL and the concentration at 10 h [1, 6] was 1450 ng/mL. It also gave a concentration at 12 h [1, 6] of 406 ng/mL, a concentration at 14 h [1, 6] of 138 ng/mL and a concentration at 24 h ([1]; Lewis, rat, plasma, oral, 10 mg/kg, plasma, oral, day 20, 10 mg/kg) of 25 ng/mL. For the same compound, the concentration at 21 day ([1]; Lewis, rat, plasma, oral, 30 mg/kg, Day 21, Group 7 (CIA), 30 mg/kg, per animal, read-out: Plasma Concentration) was 2290 ng/mL, the concentration at 21 day ([1]; Lewis, rat, plasma, oral, 30 mg/kg, Day 21, Group 7 (CIA), 30 mg/kg, read-out: Mean Plasma Concentration) was 1580 ng/mL and the AUC(0-inf) ([1]; Lewis, rat, plasma, po, 10 mg/kg, Lewis rats, oral, 10 mg/kg, day 20, mean) was 10700 ng·h/mL.
